One experiment deals with T1, PI3K delta (Homo sapiens, UniProt O00329).
T1 construct: for the full-length p110-d subunit are generated and fused by overlapping PCR; His tag (C); made in house; host or cells: baculovirus BV1060; Tn5 (Trichoplusia ni) or TiniPro insect cells
Description: Enzymatic PI3K delta isoform inhibition (lipid kinase activity, Kinase-Glo). The class given is biochemical. To be noted: enzymatic assay. The essentials: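 Reactions were started with ATP (2 μM solution) after the enzyme (10 nM solution) and phosphatidylinositol substrate (5 μg/ml solution) were added to the DMSO-dissolved compounds.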
Background: Kinase-Glo measures the ATP left after a reaction by luminescence.

The next experiment deals with murine B cells. Description: Murine B cell activation: CD86 expression on CD19 positive B cells after anti-IgM stimulation. Conditions: Balb/c mouse splenocytes, anti-IgM 30 μg/ml, 24 hours, read-out: mCD86/ IC50 CD86. Format: cell-based. The method, then:
PI3Kδ has been recognized to modulate B cell function when cells are stimulated through the B cell receptor (BCR) (Okkenhaug et al. Science 297:1031 (2002). For assessing the inhibitory property of compounds on B cell activation, the upregulation of activation markers CD86 and CD69 on murine B cells derived from mouse spleen […] is measured after stimulation with anti-IgM. CD69 is a well known activation marker for B and T cells (Sancho et al. Trends Immunol. 26:136 (2005). CD86 (also known as B7-2) is primarily expressed on antigen-presenting cells, including B cells. Resting B cells express CD86 at low levels, but upregulate it following stimulation of e.g. the BCR or IL-4 receptor. CD86 on a B cell interacts with CD28 on T cells. This interaction is required for optimal T cell activation and for the generation of an optimal IgG1 response (Carreno et al. Annu Rev Immunol. 20:29 (2002)).
Spleens from Balb/c mice were collected, splenocytes were isolated and washed twice with RPMI containing 10% foetal bovine serum (FBS), 10 mM HEPES, 100 Units/ml penicilline/streptomycine. RPMI supplemented in this way is subsequently referred to as medium. The cells were adjusted to 2.5×10^6 cells/ml in medium and 200 μl cell suspension ([…]) were added to the appropriate wells of 96 well plates.
Then the cells were stimulated by adding 50 μl anti-IgM mAb in medium (final concentration: 30 μg/ml). After incubation for 24 hours at 37° C., the cells were stained with the following antibody cocktails: anti-mouse CD86-FITC, anti-mouse CD69-PerCP-Cy5.5, anti-mouse CD19-PerCP for the assessment of B cells, and anti-mouse CD3-FITC, anti-mouse CD69-PE for the assessment of T cells (2 μl of each antibody/well). After one hour at room temperature (RT) in the dark the cells were transferred to 96 Deepwell plates. The cells were washed once with 1 ml PBS containing 2% FBS and after re-suspension in 200 μl the samples were analyzed on a FACS Calibur flow cytometer. Lymphocytes were gated in the FSC/SSC dot plot according to size and granularity and further analyzed for expression of CD19, CD3 and activation markers (CD86, CD69). Data were calculated from dot blots as percentage of cells positively stained for activation markers within the CD19+ or CD3+ population using BD CellQest Software.
For assessing the inhibitory property of compounds, compounds were first dissolved and diluted in DMSO followed by a 1:50 dilution in medium. Splenocytes from Balb/c mice were isolated, re-suspended and transfered to 96 well plates as described above (200 μl/well). The diluted compounds or solvent were added to the plates (25 μl) and incubated at 37° C. for 1 hour. Then the cultures were stimulated with 25 μl anti-IgM mAb/well (final concentration 30 μg/ml) for 24 hours at 37° C. and stained with anti-mouse CD86-FITC and anti-mouse CD19-PerCP (2 μl of each antibody/well). CD86 expression on CD19 positive B cells was quantified by flow cytometry as described above.

T1 sequence (O00329 with tags, fused parts or gaps limits assumed, species assumed): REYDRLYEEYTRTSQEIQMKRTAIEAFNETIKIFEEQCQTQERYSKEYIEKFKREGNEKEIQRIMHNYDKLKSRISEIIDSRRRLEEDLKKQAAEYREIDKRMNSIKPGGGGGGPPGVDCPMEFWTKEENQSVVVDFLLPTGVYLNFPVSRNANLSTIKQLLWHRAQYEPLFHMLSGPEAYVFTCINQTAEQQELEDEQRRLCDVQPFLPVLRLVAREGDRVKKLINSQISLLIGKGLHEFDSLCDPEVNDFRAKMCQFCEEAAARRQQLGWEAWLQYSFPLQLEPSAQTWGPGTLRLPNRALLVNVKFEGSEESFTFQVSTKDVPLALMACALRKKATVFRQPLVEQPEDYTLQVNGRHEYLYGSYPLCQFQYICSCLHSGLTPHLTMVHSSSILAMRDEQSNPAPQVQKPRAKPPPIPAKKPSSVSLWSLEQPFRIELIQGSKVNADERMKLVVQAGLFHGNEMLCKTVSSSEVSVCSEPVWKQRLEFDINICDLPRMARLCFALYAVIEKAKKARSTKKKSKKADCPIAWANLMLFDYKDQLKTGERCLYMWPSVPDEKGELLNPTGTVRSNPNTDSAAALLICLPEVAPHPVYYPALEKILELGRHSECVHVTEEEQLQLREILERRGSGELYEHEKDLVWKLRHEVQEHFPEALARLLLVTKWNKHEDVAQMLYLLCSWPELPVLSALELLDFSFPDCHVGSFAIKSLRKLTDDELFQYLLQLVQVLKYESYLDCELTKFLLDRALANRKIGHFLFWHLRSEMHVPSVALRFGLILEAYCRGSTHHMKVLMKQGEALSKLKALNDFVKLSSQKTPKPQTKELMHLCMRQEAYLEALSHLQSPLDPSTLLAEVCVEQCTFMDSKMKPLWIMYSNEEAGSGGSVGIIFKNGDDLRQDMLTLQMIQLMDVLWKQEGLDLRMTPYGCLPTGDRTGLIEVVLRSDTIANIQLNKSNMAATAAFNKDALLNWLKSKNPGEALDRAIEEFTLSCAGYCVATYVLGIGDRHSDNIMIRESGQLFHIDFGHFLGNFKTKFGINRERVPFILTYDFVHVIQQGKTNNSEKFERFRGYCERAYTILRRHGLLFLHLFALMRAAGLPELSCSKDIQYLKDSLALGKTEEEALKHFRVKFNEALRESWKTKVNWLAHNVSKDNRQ

Turning to `COc1ncc(-c2ccc3ncnc(-c4cccc(C(=O)N5CCN(C)CC5)c4)c3c2)cn1` [Example 2], the figures for the IC50 at PI3K delta and with murine B cells were 0.0095 µM and 0.0695 µM, respectively.
For `COc1ccc(-c2ccc3ncnc(-c4cccc(C(=O)N5CCN(C(C)=O)CC5)c4)c3c2)cc1S(=O)(=O)N1CCCC1` [Example 7], in that order: 0.006 µM and 0.0201 µM.
For `CNc1ncc(-c2ccc3ncnc(-c4cncc(C(=O)N5CCN(C)CC5)c4)c3c2)cc1C` [Example 75, {5-[6-(5-Methyl-6-methylamino-pyridin-3-yl)-quinazolin-4-yl]-pyridin-3-yl}-(4-methyl-piperazin-1-yl)-methanone], in that order: 0.012 µM and 0.054 µM.
For `COc1ccc(-c2ccc3ncnc(-c4cncc(C(=O)N5CCNC(C)(C)C5)c4)c3c2)cc1C(F)(F)F` [Example 81, (3,3-Dimethyl-piperazin-1-yl)-{5-[6-(4-methoxy-3-trifluoromethyl-phenyl)-quinazolin-4-yl]-pyridin-3-yl}-methanone], the IC50 was found to be 0.00363 µM against PI3K delta and 0.079 µM with murine B cells.
On to `COc1ccc(-c2ccc3ncnc(-c4cccc(C(=O)N5C[C@@H]6C[C@H]5CN6C)c4)c3c2)cn1` [Example 91, {3-[6-(6-Methoxy-pyridin-3-yl)-quinazolin-4-yl]-phenyl}-((1S,4S)-5-methyl-2,5-diaza-bicyclo[2.2.1]hept-2-yl)-methanone], for which the IC50 is < 0.003 µM against PI3K delta and 0.044 µM in the experiment with murine B cells.
For `COc1ccc(-c2ccc3ncnc(-c4cc(F)cc(C(=O)N5CCN(C(C)=O)CC5)c4)c3c2)cn1` [Example 110, 1-(4-{3-Fluoro-5-[6-(6-methoxy-pyridin-3-yl)-quinazolin-4-yl]-benzoyl}-piperazin-1-yl)-ethanone], the values for the IC50 against PI3K delta and in the experiment on murine B cells were 0.008 µM and 0.155 µM, respectively.
Regarding `COc1ccc(-c2ccc3ncnc(-c4ccc(C)c(C(=O)N5CC6CC5CN6C)c4)c3c2)cn1` (centres unmarked) [Example 117], the results for the IC50 at PI3K delta and in the experiment with murine B cells were 0.009 µM and 0.101 µM, respectively.
